Assays:
Assay in all cases: Cell proliferation panel (CellTiter-Glo 2.0, 5 days)
Assay type in all cases: cell-based
A549 = conditions: Lung carcinoma, NSCLC
Procedure: (§1) Cell proliferation assay was carried out in a panel of 108 cell lines. 1000 (attached cells) or 3000 (suspension cells) cells/100 μl per well were seeded in 96 well black plate with a clear bottom (Corning #3904). Compounds were added using Tecan D300e Digital Dispenser in 1:3 titration for 9 doses. Plates were incubated for 5 days at 37° C. and 5% CO2. Cell proliferation was measured using CellTiter-Glo 2.0 luciferase-based ATP detection assay (Promega, Madison, WI) at 50 μl per well following the manufacturer's protocol. Plates were then read on a TECAN Sparks multimode microplate reader. Data was analyzed using GraphPad Prism 9 (GraphPad Software, San Diego, CA) to obtain IC50 values. IC50 values were determined using Prism software (GraphPad Software, San Diego, CA).

AU565 = conditions: Breast adenocarcinoma
Procedure: as §1

BJ = conditions: Skin fibroblast
Procedure: as §1

CT26 = conditions: Murine colon carcinoma fibroblasts
Procedure: as §1

Caki-2 = conditions: Kidney clear cell carcinoma
Procedure: as §1

DU4475 = conditions: Breast carcinoma
Procedure: as §1

H1792 = conditions: Lung adenocarcinoma NSCLC
Procedure: as §1

H1930 = conditions: Lung carcinoma small cell lung cancer
Procedure: as §1

H1975 = conditions: Lung adenocarcinoma NSCLC
Procedure: as §1

H2087 = conditions: Lung adenocarcinoma NSCLC
Procedure: as §1

H211 = conditions: Small cell lung carcinoma
Procedure: as §1

H2122 = conditions: Lung adenocarcinoma NSCLC
Procedure: as §1

H2228 = conditions: Lung adenocarcinoma, NSCLC
Procedure: as §1

H23 = conditions: Lung adenocarcinoma NSCLC
Procedure: as §1

H358 = conditions: Bronchioalveolar carcinoma NSCLC
Procedure: as §1

H446 = conditions: Small cell lung carcinoma
Procedure: as §1

HCC1419 = test system: HCC1419
Procedure: as §1

HCC1806 = conditions: Breast carcinoma, TNBC
Procedure: as §1

HCC38 = conditions: Mammary gland ductal carcinoma
Procedure: as §1

HCC78 = conditions: Non-small cell lung carcinoma
Procedure: as §1

HCC827 = conditions: Lung adenocarcinoma NSCLC
Procedure: as §1

HCT116 = conditions: Colorectal adenocarcinoma
Procedure: as §1

HGC-27 = conditions: Gastric carcinoma
Procedure: as §1

Hs746T = conditions: Gastric carcinoma
Procedure: as §1

KASUMI-1 = conditions: Acute myeloblastic leukemia
Procedure: as §1

KASUMI-3 = conditions: Acute myeloblastic leukemia
Procedure: as §1

KATOIII = conditions: Gastric carcinoma
Procedure: as §1

KCL22R = conditions: Chronic Myelogenous Leukemia
Procedure: as §1

KCL22S = conditions: Chronic myeloid leukemia at blast crisis
Procedure: as §1

Kelly = conditions: Neuroblastoma
Procedure: as §1

LNCaP = conditions: Prostate carcinoma
Procedure: as §1

MC38 = conditions: Murine colon adenocarcinoma
Procedure: as §1

MOLM14 = conditions: Acute myeloid leukemia
Procedure: as §1

PANC0504 = conditions: Pancreatic carcinoma
Procedure: as §1

PC-9 = conditions: Lung adenocarcinoma NSCLC
Procedure: as §1

SK-N-AS = conditions: Neuroblastoma
Procedure: as §1

SK-N-SH = conditions: Neuroblastoma
Procedure: as §1

SKNO-1 = conditions: Acute myeloid leukemia
Procedure: as §1

SKOV3 = conditions: Ovarian adenocarcinoma
Procedure: as §1

SNU-16 = conditions: Gastric carcinoma
Procedure: as §1

SU-DHL-6 = conditions: Diffuse Large B Cell Lymphoma
Procedure: as §1

SUIT-2 = conditions: Pancreatic tubular adenocarcinoma
Procedure: as §1

SW1990 = conditions: Pancreatic adenocarcinoma
Procedure: as §1

THP-1 = conditions: Acute monocytic leukemia
Procedure: as §1

Toledo = conditions: Diffuse Large B Cell Lymphoma
Procedure: as §1

U138-MG = conditions: Brain glioblastaoma
Procedure: as §1

IC50 (A549): 0.0677 µM
IC50 (H1792): 0.121 µM
IC50 (H1930): 0.181 µM
IC50 (H1975): 0.0872 µM
IC50 (H2087): 0.141 µM
IC50 (H211): 0.105 µM
IC50 (H2122): 0.0737 µM
IC50 (H2228): 0.118 µM
IC50 (H358): 0.148 µM
IC50 (H446): 0.112 µM
IC50 (HCC1419): 0.0838 µM
IC50 (HCC1806): 0.0859 µM
IC50 (HCC38): 0.161 µM
IC50 (HCC78): 0.0427 µM
IC50 (HCC827): 0.0709 µM
IC50 (HCT116): 0.0602 µM
IC50 (LNCaP): 0.136 µM
IC50 (MOLM14): 0.00226 µM
IC50 (PANC0504): 0.0822 µM
IC50 (PC-9): 0.164 µM
IC50 (SK-N-AS): 0.0772 µM
IC50 (SK-N-SH): 0.0217 µM
IC50 (SKNO-1): 0.0233 µM
IC50 (SKOV3): 0.117 µM
IC50 (SNU-16): 0.0905 µM
IC50 (SU-DHL-6): 0.0284 µM
IC50 (SW1990): 0.104 µM
IC50 (THP-1): 0.107 µM
SMILES: CCc1nn(C)c2c1/C=C/c1n[nH]c3ccc(cc13)-c1cnn(C)c1OCCN(C)C2=O [Ex. 6, (17E)-16-ethyl-8,12,14-trimethyl-2,11,12,14-tetrahydro-8H-3,5-ethenotripyrazolo[3,4-f:3′,4′-j:4″,3″-n][1,4]oxazacyclopentadecin-13(10H)-one]
IC50 (AU565): 0.0255 µM
IC50 (BJ): 0.516 µM
IC50 (CT26): 0.215 µM
IC50 (Caki-2): 0.142 µM
IC50 (DU4475): 0.0614 µM
IC50 (H23): 0.0888 µM
IC50 (HGC-27): 0.1 µM
IC50 (Hs746T): 0.183 µM
IC50 (KASUMI-1): 0.014 µM
IC50 (KASUMI-3): 0.0433 µM
IC50 (KATOIII): 0.159 µM
IC50 (KCL22R): 0.0648 µM
IC50 (KCL22S): 0.0612 µM
IC50 (Kelly): 0.0515 µM
IC50 (MC38): 0.217 µM
IC50 (SUIT-2): 0.393 µM
IC50 (Toledo): 0.0346 µM
IC50 (U138-MG): 0.17 µM
